Data set [1] in a line: Cytotoxicity against human MRC5 cells assessed as reduction in cell viability after 48 hrs by neutral red staining-based microscopic analysis.
The nature of data set [2]: Cytotoxicity against African green monkey Vero cells assessed as reduction in cell viability after 18 hrs by neutral red staining-based microscopic analysis. As to conditions: chlorocebus sabaeus.
Data set [3] in a line: Selectivity index, ratio of CC50 for human MRC5 cells to IC50 for Chikungunya virus LR2006 OPY1. It is filed as toxicity. Particulars: read-out: Ratio CC50/IC50.
The nature of data set [4]: Selectivity index, ratio of CC50 for African green monkey Vero cells to IC50 for Chikungunya virus LR2006 OPY1. The format is toxicity. Particulars: read-out: Ratio CC50/IC50.
Data set [5] has as its system Chikungunya virus. Kind of data set: Antiviral activity against Chikungunya virus LR2006 OPY1 infected in human MRC5 cells after 60 mins by indirect immunofluorescence analysis. It is filed as functional, organism-based. As to conditions: LR2006 OPY1, MRC5, 1 h.
In data set [6] the test system is Chikungunya virus. Briefly: Antiviral activity against Chikungunya virus LR2006 OPY1 infected in human MRC5 cells after 30 mins by indirect immunofluorescence analysis. The format is functional, organism-based. Particulars: LR2006 OPY1, MRC5, 0.5 h.
In data set [7] the test system is Chikungunya virus. Kind of data set: Antiviral activity against Chikungunya virus LR2006 OPY1 infected in human MRC5 cells after 48 hrs by indirect immunofluorescence analysis. Particulars: LR2006 OPY1, MRC5, 48 h. The format is functional, organism-based.
The test system of data set [8] is Chikungunya virus. Kind of data set: Antiviral activity against Chikungunya virus LR2006 OPY1 infected in African green monkey BGM cells after 24 hrs by luciferase reporter gene assay. It is filed as functional, organism-based. (In a reporter assay the amount or activity of a reporter protein is the signal.)
Data set [9] concerns Chikungunya virus. Kind of data set: Antiviral activity against Chikungunya virus 899 assessed as inhibition of virus-induced cytopathogenic effect measured on day 5 post infection by MTS/PMS based microscopic analysis. It is filed as functional, organism-based. Particulars: Chikungunya virus, 899, 120 h.
Data set [10] concerns Chikungunya virus. Kind of data set: Antiviral activity against Chikungunya virus 899 infected in African green monkey BGM cells assessed as reduction in viral infectious progeny after 48 hrs by titration assay. The format is functional, organism-based. As to conditions: Chikungunya virus, 899, BGM.
The test system of data set [11] is Chikungunya virus. Kind of data set: Antiviral activity against Chikungunya virus CNR20235 infected in buffalo green monkey BGM cells after 24 hrs by luciferase reporter gene assay. The format is functional, organism-based.
Data set [12] relates to Chikungunya virus. Briefly: Antiviral activity against Chikungunya virus SGP011 by qRT-PCR analysis. It is filed as functional, organism-based. (In general: Real-time PCR tracks product formation cycle by cycle.)
Data set [13] relates to Chikungunya virus. Kind of data set: Antiviral activity against Chikungunya virus 899 by qRT-PCR analysis. It is filed as functional, organism-based.
In data set [14] the test system is Chikungunya virus. Briefly: Antiviral activity against Chikungunya virus SGP011 infected in African green monkey BGM cells assessed as reduction in viral infectious progeny after 48 hrs by titration assay. The format is functional, organism-based.
In data set [15] the test system is Chikungunya virus. Briefly: Antiviral activity against Chikungunya virus SGP011 infected in African green monkey BGM cells after 24 hrs by luciferase reporter gene assay. It is filed as functional, organism-based.
For data set [16], the system named is Chikungunya virus. Briefly: Antiviral activity against Chikungunya virus infected in HEK293T cells assessed as reduction in infectious virus particle production by luciferase reporter gene assay. It is filed as functional, organism-based. As to conditions: HEK-293T.

pEC50, pIC50: −log10 of the molar value. Values after ≈ are worked out from the molar mass of the structure shown.

In the case of `CCOC(=O)c1c(CSc2ccccc2)n(C)c2cc(Br)c(O)c(CN(C)C)c12` [UMIFENOVIR], the CC50 at 48 h in data set [1] came to 376 µM. In addition, the CC50 at 18 h in data set [2] is 680 µM. Further, the selectivity ratio is 36 in data set [3] and 28 in data set [4]. Besides, the negative logarithm of the IC50 (pIC50) with Chikungunya virus [5] was 4.50; in the data set on Chikungunya virus [6], 4.64; in the data set on Chikungunya virus [7], 4.91.

For the molecule `CC(=O)O[C@@]12C[C@@H](C)[C@@]3(O)[C@@H](C=C(CO)C[C@]4(O)C(=O)C(C)=C[C@@H]34)[C@@H]1C2(C)C` [PROSTRATIN], the pEC50 in the data set with Chikungunya virus [8] was 6.70; with Chikungunya virus [9], 5.10; in the data set on Chikungunya virus [10], 5.15; with Chikungunya virus [11], 6.30; in the data set with Chikungunya virus [12] it was 6.52; in the data set on Chikungunya virus [13] it was 5.12. Moreover, the pEC50 was 6.40 with Chikungunya virus [14] and 6.70 in the data set on Chikungunya virus [15].

`O=C(O[C@@H]1Cc2c(O)cc(O)cc2O[C@@H]1c1cc(O)c(O)c(O)c1)c1cc(O)c(O)c(O)c1` [EPIGALOCATECHIN GALLATE]: the 50% effective concentration (EC50) in the data set on Chikungunya virus [16] came to 6.54 µg/mL (≈ 14.3 µM).

As a reminder, the CC50 is the concentration giving 50% cytotoxicity. By pIC50 is commonly meant the IC50 on a negative log10 scale, so that one unit is a factor of ten. One may read the pEC50 as −log10 of the EC50, conventionally taken in molar units. What is called EC50 is the concentration needed to bring the measured effect to its halfway point.

These data come from ChEMBL document CHEMBL4177563, “The medicinal chemistry of Chikungunya virus” (Bioorg Med Chem, 2017).
